We go through ten compounds from ChEMBL document CHEMBL1743341, “Cytochrome p450 enzymes mechanism based inhibitors: common sub-structures and reactivity” (Curr Drug Metab, 2005).

The term kinact denotes the maximal first-order rate at which the target is inactivated.

Data set [1] has as its target T1, CYP1A2 (Homo sapiens, UniProt P05177).
T1 sequence (P05177 whole entry): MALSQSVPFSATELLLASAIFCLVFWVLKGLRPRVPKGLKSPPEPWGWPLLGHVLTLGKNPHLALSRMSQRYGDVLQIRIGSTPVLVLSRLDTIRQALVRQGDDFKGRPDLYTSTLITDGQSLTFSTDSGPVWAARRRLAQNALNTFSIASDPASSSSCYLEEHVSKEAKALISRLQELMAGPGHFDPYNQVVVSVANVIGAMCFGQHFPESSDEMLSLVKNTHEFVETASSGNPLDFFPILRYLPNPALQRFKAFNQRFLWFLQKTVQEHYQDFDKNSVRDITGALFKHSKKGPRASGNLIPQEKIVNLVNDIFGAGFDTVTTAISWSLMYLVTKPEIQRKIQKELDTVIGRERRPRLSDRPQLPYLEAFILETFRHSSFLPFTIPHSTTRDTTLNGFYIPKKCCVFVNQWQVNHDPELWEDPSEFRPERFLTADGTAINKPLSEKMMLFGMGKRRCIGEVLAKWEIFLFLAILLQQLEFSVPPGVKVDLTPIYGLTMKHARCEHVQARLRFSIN
Description: Mechanism based inhibition of human cytochrome P450 1A2. The class given is ADME.

For a further data set, the target named is Cytochrome P450 3A5 (Homo sapiens, UniProt P20815). Description: Mechanism based inhibition of human cytochrome P450 3A5 measured by testosterone hydroxylation. The class given is ADME.
The target of data set [2] is T2, Cytochrome P450 2B1 (Rattus norvegicus, UniProt P00176).
T2 sequence (P00176 whole entry): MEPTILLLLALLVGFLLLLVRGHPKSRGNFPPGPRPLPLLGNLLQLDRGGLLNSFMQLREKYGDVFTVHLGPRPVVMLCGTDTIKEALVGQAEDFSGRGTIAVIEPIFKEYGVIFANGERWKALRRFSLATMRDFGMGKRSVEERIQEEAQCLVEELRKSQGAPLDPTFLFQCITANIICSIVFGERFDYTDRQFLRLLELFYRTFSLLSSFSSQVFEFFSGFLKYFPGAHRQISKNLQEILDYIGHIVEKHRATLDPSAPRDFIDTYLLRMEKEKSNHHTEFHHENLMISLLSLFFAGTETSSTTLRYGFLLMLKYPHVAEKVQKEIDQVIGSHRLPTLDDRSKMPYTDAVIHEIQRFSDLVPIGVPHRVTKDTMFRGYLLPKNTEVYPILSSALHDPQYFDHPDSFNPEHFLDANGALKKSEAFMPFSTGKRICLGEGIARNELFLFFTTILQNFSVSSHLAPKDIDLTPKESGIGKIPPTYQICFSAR
Description: Mechanism based inhibition of rat cytochrome P450 CYP2B1 partition ratio. The class given is ADME.

Data set [3] has as its target T2, Cytochrome P450 2B1. Description: (§1) Mechanism based inhibition of rat cytochrome P450 CYP2B1 measured by 7-EFC O-deethylation activity. The class given is ADME.
The next data set deals with T3, CYP2B1 (Rattus norvegicus, UniProt P00176).
T3 sequence (P00176 whole entry): T2 sequence (P00176 whole entry)
The data set is described as §1. Conditions: rat, probe 7-EFC (O-deethylation). The class given is ADME.

Data set [4] deals with T4, Cytochrome P450 2B6 (Homo sapiens, UniProt P20813).
T4 sequence (P20813 whole entry): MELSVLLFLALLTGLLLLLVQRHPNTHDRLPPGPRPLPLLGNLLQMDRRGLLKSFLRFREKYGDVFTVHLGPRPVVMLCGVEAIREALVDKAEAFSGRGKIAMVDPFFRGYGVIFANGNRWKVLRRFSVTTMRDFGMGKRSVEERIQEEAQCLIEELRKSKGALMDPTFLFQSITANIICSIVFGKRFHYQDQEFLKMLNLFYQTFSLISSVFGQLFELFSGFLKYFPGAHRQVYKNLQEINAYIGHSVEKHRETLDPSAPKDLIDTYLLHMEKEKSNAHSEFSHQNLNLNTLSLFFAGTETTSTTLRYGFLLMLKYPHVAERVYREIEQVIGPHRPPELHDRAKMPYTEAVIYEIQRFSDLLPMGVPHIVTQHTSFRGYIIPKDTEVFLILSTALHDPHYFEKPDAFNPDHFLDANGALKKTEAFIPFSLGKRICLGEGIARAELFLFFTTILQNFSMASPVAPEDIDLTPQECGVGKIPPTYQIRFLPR
Description: (§2) Mechanism based inhibition of human cytochrome P450 2B6 using human liver microsomes.

For data set [5], the target named is T5, CYP2B6 (Homo sapiens, UniProt P20813).
T5 sequence (P20813 whole entry): T4 sequence (P20813 whole entry)
Described as §2. Conditions: human, human liver microsomes. (Microsomes from liver hold many membrane-bound enzymes, among them those of drug oxidation.)

Data set [6] concerns the target T4, Cytochrome P450 2B6. Description: (§3) Mechanism based inhibition of human cytochrome P450 2B6 using recombinant CYP2B6.
In data set [7] the target is T5, CYP2B6. Described as §3. The following applies: human, recombinant CYP2B6.
The target of data set [8] is T6, CYP3A4 (Homo sapiens, UniProt P08684). As to the kind of experiment: (§4) Mechanism based inhibition of human cytochrome P450 3A4 measured by nifedipine oxidation, omeprazole 3-hydroxylation and omeprazole sulfoxydation. The class given is ADME. The following applies: human.
Data set [9] deals with T7, Cytochrome P450 3A4 (Homo sapiens, UniProt P08684). The description is as §4. The class given is ADME.
In data set [10] the target is T6, CYP3A4. As to the kind of experiment: (§5) Mechanism based inhibition of human cytochrome P450 3A4. The class given is ADME. Conditions: human.
Data set [11] has as its target T7, Cytochrome P450 3A4. The description is as §5. The class given is ADME.
For data set [12], the target named is T7, Cytochrome P450 3A4. Description: Mechanism based inhibition of human cytochrome P450 3A4 measured by testosterone 6-beta hydroxylation. The class given is ADME.
A further data set addresses Cytochrome P450 2E1 (Homo sapiens, UniProt P05181). Description: Mechanism based inhibition of human cytochrome P450 2E1. The class given is ADME.
The next data set addresses T8, Cytochrome P450 2A6 (Homo sapiens, UniProt P11509).
T8 sequence (P11509 whole entry): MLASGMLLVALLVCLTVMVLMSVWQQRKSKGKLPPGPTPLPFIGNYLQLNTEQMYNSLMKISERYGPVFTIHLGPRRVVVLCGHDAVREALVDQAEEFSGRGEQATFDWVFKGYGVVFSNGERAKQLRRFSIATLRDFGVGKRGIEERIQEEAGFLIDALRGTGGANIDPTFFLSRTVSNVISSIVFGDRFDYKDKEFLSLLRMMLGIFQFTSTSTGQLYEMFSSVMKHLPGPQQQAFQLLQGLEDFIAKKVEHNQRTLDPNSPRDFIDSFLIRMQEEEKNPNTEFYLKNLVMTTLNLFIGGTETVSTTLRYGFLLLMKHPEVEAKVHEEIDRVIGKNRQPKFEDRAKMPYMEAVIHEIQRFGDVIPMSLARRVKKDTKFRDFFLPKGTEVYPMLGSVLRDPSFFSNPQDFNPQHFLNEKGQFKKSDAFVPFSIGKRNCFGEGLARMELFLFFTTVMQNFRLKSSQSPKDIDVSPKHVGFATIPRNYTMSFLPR
As to the kind of experiment: Mechanism based inhibition of human cytochrome P450 2A6. The class given is ADME.

In data set [13] the target is T7, Cytochrome P450 3A4. As to the kind of experiment: Mechanism based inhibition of human cytochrome P450 3A4 measured by lovastatin 6'-beta hydroxylase activity. The class given is ADME.
For another data set, the target named is Cytochrome P450 2A13 (Homo sapiens, UniProt Q16696). Description: Mechanism based inhibition of human cytochrome P450 2A13 measured by coumarin 7-hydroxylation and testosterone 15-hydroxylation. The class given is ADME.
The target of data set [14] is T1, CYP1A2. Description: (§6) Mechanism based inhibition of human cytochrome P450 1A2 measured by 7-ethoxyresorufin O-deethylation (EROD). The following applies: human, probe 7-ethoxyresorufin (O-deethylation, EROD).
A further data set has as its target T9, Cytochrome P450 1A2 (Homo sapiens, UniProt P05177).
T9 sequence (P05177 whole entry): T1 sequence (P05177 whole entry)
The description is as §6.

The target of data set [15] is T4, Cytochrome P450 2B6. As to the kind of experiment: Mechanism based inhibition of human cytochrome P450 2B6 measured by 7-EFC O-deethylation. The class given is ADME.
Data set [16] concerns the target T7, Cytochrome P450 3A4. Description: Mechanism based inhibition of human cytochrome P450 3A4 measured by midazolam 1'-hydroxylation. The class given is ADME.

T7 sequence (P08684 whole entry): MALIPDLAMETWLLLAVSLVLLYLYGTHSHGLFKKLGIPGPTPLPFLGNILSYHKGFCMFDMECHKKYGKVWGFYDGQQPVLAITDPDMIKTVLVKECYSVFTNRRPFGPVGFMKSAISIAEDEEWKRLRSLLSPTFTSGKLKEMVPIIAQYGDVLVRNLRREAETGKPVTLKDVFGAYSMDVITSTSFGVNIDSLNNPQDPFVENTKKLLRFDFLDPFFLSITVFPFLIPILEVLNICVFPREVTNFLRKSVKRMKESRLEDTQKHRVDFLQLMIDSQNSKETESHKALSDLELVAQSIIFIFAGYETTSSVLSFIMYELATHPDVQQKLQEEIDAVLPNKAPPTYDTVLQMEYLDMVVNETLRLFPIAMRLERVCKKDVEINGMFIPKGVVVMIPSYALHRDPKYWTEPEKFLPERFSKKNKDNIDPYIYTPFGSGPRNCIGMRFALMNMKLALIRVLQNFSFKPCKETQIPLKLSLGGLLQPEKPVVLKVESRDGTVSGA
T6 sequence (P08684 whole entry): as above
Sequence of Cytochrome P450 2E1 (P05181 whole entry): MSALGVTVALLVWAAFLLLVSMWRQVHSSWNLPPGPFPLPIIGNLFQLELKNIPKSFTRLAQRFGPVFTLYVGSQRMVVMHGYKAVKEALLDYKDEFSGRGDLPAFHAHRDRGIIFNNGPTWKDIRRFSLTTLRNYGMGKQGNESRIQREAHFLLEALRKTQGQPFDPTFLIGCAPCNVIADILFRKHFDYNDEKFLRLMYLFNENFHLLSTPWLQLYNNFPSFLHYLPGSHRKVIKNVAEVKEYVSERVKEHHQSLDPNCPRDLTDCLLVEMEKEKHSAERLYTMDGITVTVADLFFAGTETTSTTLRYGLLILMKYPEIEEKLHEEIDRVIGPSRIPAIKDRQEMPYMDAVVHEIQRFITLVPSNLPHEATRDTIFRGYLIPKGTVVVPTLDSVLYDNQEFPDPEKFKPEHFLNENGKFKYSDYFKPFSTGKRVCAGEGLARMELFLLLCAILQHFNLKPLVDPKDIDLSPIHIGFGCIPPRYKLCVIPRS
Sequence of Cytochrome P450 2A13 (Q16696 whole entry): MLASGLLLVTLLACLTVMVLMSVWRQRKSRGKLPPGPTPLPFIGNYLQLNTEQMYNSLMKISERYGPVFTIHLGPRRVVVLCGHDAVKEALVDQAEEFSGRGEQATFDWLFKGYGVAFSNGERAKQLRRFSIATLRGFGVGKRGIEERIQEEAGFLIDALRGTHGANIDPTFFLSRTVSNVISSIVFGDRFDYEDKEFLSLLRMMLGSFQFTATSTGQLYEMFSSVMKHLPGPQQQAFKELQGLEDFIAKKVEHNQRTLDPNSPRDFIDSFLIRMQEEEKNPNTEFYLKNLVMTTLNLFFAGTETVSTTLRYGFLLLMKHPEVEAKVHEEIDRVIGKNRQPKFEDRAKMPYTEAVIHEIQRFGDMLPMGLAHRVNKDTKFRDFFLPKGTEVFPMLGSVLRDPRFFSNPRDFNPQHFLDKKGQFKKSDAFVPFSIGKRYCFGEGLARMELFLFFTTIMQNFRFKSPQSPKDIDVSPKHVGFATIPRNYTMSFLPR
Sequence of Cytochrome P450 3A5 (P20815 whole entry): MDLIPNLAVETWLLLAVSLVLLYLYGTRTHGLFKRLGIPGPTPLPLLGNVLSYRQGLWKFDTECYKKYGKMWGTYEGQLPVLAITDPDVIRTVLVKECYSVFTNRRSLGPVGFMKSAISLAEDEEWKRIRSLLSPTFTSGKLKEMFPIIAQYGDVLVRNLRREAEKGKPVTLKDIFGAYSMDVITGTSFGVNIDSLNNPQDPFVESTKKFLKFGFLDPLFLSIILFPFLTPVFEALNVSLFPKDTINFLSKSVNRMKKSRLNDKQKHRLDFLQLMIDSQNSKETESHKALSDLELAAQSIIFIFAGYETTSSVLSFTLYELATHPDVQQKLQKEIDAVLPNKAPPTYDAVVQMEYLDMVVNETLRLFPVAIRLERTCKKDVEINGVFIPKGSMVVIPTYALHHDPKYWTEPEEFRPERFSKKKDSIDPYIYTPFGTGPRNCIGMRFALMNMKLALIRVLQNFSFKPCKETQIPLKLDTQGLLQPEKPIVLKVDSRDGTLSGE

`Cc1nc2c([nH]1)c(=O)n(C)c(=O)n2CC1CCCCC1`: the kinact on CYP1A2 [1] was 0.0148 s⁻¹.

With `Cc1c(O)cccc1C(=O)N[C@@H](CSc1ccccc1)[C@H](O)CN1C[C@H]2CCCC[C@H]2C[C@H]1C(=O)NC(C)(C)C`, the Ki on Cytochrome P450 3A5 turned out to be 0.57 µM.

For the compound `S=C=NCc1ccccc1` [BENZYL ISOTHIOCYANATE], at Cytochrome P450 2B1 [2], the partition_ratio stood at 9. Further, the Ki on Cytochrome P450 2B1 [3] was found to be 5.8 µM. Further, the inactivation rate constant (kinact) on CYP2B1 is 0.011 s⁻¹.

For the compound `COC(=O)[C@H](c1ccccc1Cl)N1CCc2sccc2C1` [CLOPIDOGREL], the Ki stood at 0.5 µM at Cytochrome P450 2B6 [4] and 1.1 µM on Cytochrome P450 2B6 [6]. Besides, the maximal inactivation rate constant (kinact) at CYP2B6 [5] is 0.00583 s⁻¹; at CYP2B6 [7] it was 0.0025 s⁻¹.

With `C/C(=C\COc1c2ccoc2cc2oc(=O)ccc12)CCC(O)C(C)(C)O` (configuration not stated) [DIHYDROXYBERGAMOTTIN], the maximal inactivation rate constant (kinact) on CYP3A4 [8] is 0.001 s⁻¹; at CYP3A4 [10] it was 0.00267 s⁻¹. Also, the Ki was found to be 5.56 µM at Cytochrome P450 3A4 [9] and 59 µM on Cytochrome P450 3A4 [11]. The mechanism based inhibition entry on Cytochrome P450 3A4 [12] was “Cytochrome P450 mechanistic inhibitor: PMID 10859150”.

`CCN(CC)C(=S)S` [DITIOCARB]: the mechanism based inhibition entry at Cytochrome P450 2E1 and on Cytochrome P450 2A6 was “Cytochrome P450 mechanistic inhibitor: PMID 9695717” in each case.

On to `CN1CCN(C(=O)N[C@@H](Cc2ccccc2)C(=O)N[C@H](/C=C/S(=O)(=O)c2ccccc2)CCc2ccccc2)CC1` [K-777], for which, at Cytochrome P450 3A4 [13], the mechanism based inhibition result is given as “Cytochrome P450 mechanistic inhibitor: PMID 11038163”.

For `COc1c2occc2cc2ccc(=O)oc12` [METHOXSALEN], at Cytochrome P450 2A13, the mechanism based inhibition entry is listed as “Cytochrome P450 mechanistic inhibitor: PMID 15579482”.

Regarding `Cc1c(-c2cnccn2)ssc1=S` [OLTIPRAZ], the maximal inactivation rate constant (kinact) at CYP1A2 [14] was 0.00317 s⁻¹. This compound came in with a Ki on Cytochrome P450 1A2 of 9 µM.

Compound `CC/C(=C(\c1ccccc1)c1ccc(OCCN(C)C)cc1)c1ccccc1` [TAMOXIFEN] came in with a Ki at Cytochrome P450 2B6 [15] of 0.9 µM. Further, the mechanism based inhibition entry at Cytochrome P450 3A4 [16] is “Cytochrome P450 mechanistic inhibitor”.
